Measurements as given in patent publication US20070148710A1, “Cpt resistant cell line” (priority 2003, published 2007).
In brackets after ≈: the same amount, converted by molar mass. Like-named read-outs stand apart in the source and are kept apart here.

Tests used:
SW948 cells [1] = experiment: cell cycle analysis; format: cell-based, human
SW948CPTH cells [2] = experiment: clonogenic assay, CPT-11 IC50; format: cell-based; settings: Homo sapiens
Protocol: 7. […] IC50 was determined using a clonogenic assay.
Ten days later, the surviving fraction of the SW948 and SW948CPTH cells was determined.
The cells were then washed, fresh medium added, and plated for colony formation.

[3] = tested on: SW948CPTH cell lines recovered from xenografts; experiment: clonogenic assay on cell lines recovered from tumor xenografts; format: cell-based; settings: Homo sapiens, cultured 2-4 weeks CPT-11-free
SW948CPTH = experiment: cell proliferation assay, cross-resistance to topoisomerase I and II inhibitors; format: cell-based, human
Text: (§1) Drug resistance to other topoisomerase I and II inhibitors was examined by determining the IC50 dose of each drug using a cell proliferation assay as shown in Table 3.

SW948 = experiment: as above; format: cell-based, human; settings: Homo sapiens; SW948 parental; mean ± SD, 2-4 independent assays; read-out: Sensitivity expressed as IC50
Text: as §1

SW948CPTL cells = experiment: intracellular accumulation of CPT-11 (HPLC), effect of verapamil; format: cell-based, human; settings: SW948CPTL vs parent SW948; CPT-11 160 μM, 2 hours, 37° C. (FIG. 6A)
Text: (§2) 10. […] Cells were washed, trypsinized, and counted. Cell pellets were lysed with water and sonicated. […] Results were generated from three independent experiments. […] Data are expressed as mean±SD. […] Data are the mean±SD of two experiments done in triplicate.
(§3) Additionally, multidrug resistance can be evaluated by measuring the expression level of p-glycoprotein (p-gp) (Juliano et al Biochim Biophys Acta 11:152-162, 1976) and breast cancer resistant protein (BCRP) (Doyle et al Proc Natl Acad Sci U S A 95:15665-15670, 1998) in SW948 and the resistant SW948 cell lines (SW948CPTH and SW948CPTL). It is understood that the disclosed methods can also be used with other cell lines including other colon cancer cell lines. For example, the disclosed methods can be used with LS174T, WiDr, HT-29, SW403, DLD-1, SW480, SNU-C1, Caco-2, and COLO 205 cell lines.

SW948CPTH cells [4] = experiment: as above; format: cell-based, human; settings: SW948CPTH vs parent SW948; CPT-11 160 μM, 2 hours, 37° C. (FIG. 6A)
Text: as §2, §3

SW948 cells [5] = experiment: clonogenic cell survival assay, CPT-11 IC50; format: cell-based; settings: Homo sapiens
Protocol: 81. […] Cells were then washed with PBS and cultured in fresh medium without CPT-11 and a colony formation assay initiated. Ten days later, the surviving fraction of the SW948 and SW948CPTH cells was determined.
82. […] This level of sensitivity was similar to that reported for other cell lines (Kanzawa et al. Cancer Res 50:5919-5924, 1990; Kojima et al. Cancer Res 58:4368-4374, 1998; and Kojima et al. J Clin Invest 101:1789-1796, 1998).

[6] = tested on: SW948 human colon cancer xenografts; experiment: tumor xenograft growth; format: in vivo, Balb/c athymic nude mice; settings: initial study: Erbitux 1 mg i.p. every 3 days, CPT-11 40 mg/kg i.v. every 6 days, 3 Gy radiation (FIG. 11); n=7
Protocol: 15. […] Erbitux® (1 mg) was administered i.p. every 3 days for 5 weeks beginning on day 22 after tumor cell injection. […] Mean change in tumor size relative to size on day 22 (n=7 mice/group) is shown. At the time of Erbitux® administration (day 22), the mean±SD size of the tumors were 71.8±39.8 mm^2.
16. […] Erbitux® (1 mg) was administered i.p. 2 times a week for 3 weeks (days 24, 27, 31, 34, 38, and 41) beginning on day 24 after tumor cell injection. […] Mean change in tumor size relative to size on day 24 (n=7 mice/group). At the time of Erbitux® administration (day 24), the mean±SD size of the tumors were 58.0±29.3 mm^2.
91. Additional studies against SW948 colon cancer cells have been carried out in vitro and with SW948 tumor xenografts. […] FIG. 10 illustrates the induction of apoptosis in SW948 cells in vitro following treatment with these agents. […] This experiment was run concurrently with a third experiment in which SW948CPTH cells were used in the xenograft (FIG. 13).
92. Balb/c athymic nude mice were injected subcutaneously with 2×10^7 SW948 or SW948CPTH cells. […] Change in average tumor size measured with calipers (surface area equal to product of two largest diameters) for each group relative to the size on day 24 was determined. […] Change in average tumor size relative to day 22 was monitored as described above for SW948 tumors.

[7] = SW948 parent cell line, dose dependent

SMILES: CCc1c2c(nc3ccc(OC(=O)N4CCC(N5CCCCC5)CC4)cc13)-c1cc3c(c(=O)n1C2)COC(=O)[C@]3(O)CC [CPT-11, Irinotecan]
- G0-G1(%) (SW948 cells [1]; SW948, CPT-11 1 μg/ml): 36.0 ± 3.2%
- S(%) (SW948 cells [1]; SW948, CPT-11 1 μg/ml): 39.6 ± 3.8%
- G0-G1(%) (SW948 cells [1]; SW948, CPT-11 2 μg/ml): 22.1 ± 2.0%
- G2-M(%) (SW948 cells [1]; SW948, CPT-11 2 μg/ml): 35.8 ± 5.1%
- S(%) (SW948 cells [1]; SW948, CPT-11 2 μg/ml): 42.1 ± 6.7%
- G0-G1(%) (SW948 cells [1]; SW948, CPT-11 5 μg/ml): 17.0 ± 1.9%
- G2-M(%) (SW948 cells [1]; SW948, CPT-11 5 μg/ml): 41.0 ± 2.5%
- S(%) (SW948 cells [1]; SW948, CPT-11 5 μg/ml): 42 ± 2.5%
- change of S phase (SW948 cells [1]; SW948 parent cell line): No obvious changes
- change of percentage of cells in the G0-G1 phase (SW948 cells [1]; [7]): decreased
- change of percentage of cells in the G2-M phase (SW948 cells [1]; [7]): increased
- IC50 (SW948CPTH cells [2]; 192 h, read-out: CPT-11 IC50, SW948CPTH exposed to 80 μg/ml CPT-11, 8 days when assayed, tested in presence of CPT-11): 79 µg/mL
- IC50 (SW948CPTH cells [2]; 336 h, read-out: CPT-11 IC50, SW948CPTH exposed to 8 μg/ml CPT-11, 14 days when assayed, tested in presence of CPT-11): 18.2 µg/mL
- IC50 (SW948CPTH cells [2]; 480 h, read-out: CPT-11 IC50, SW948CPTH exposed to 8 μg/ml CPT-11, 20 days when assayed, tested in presence of CPT-11): 15.6 µg/mL
- IC50 (SW948CPTH cells [2]; 480 h, read-out: CPT-11 IC50, SW948CPTH exposed to 30 μg/ml CPT-11, 20 days when assayed, tested in presence of CPT-11): 18 µg/mL
- IC50 (SW948CPTH cells [2]; 552 h, read-out: CPT-11 IC50, SW948CPTH exposed to 10 μg/ml CPT-11, 23 days when assayed, tested in presence of CPT-11): 21.3 µg/mL
- IC50 (SW948CPTH cells [2]; 600 h, read-out: CPT-11 IC50, SW948CPTH exposed to 20 μg/ml CPT-11, 25 days when assayed, tested in presence of CPT-11): 23.6 µg/mL
- IC50 (SW948CPTH cells [2]; […], read-out: CPT-11 IC50, SW948CPTH exposed to 30 μg/ml CPT-11, 19 days when assayed, tested in presence of CPT-11): 21.3 µg/mL
- IC50 (SW948CPTH cells [2]; read-out: CPT-11 IC50, SW948CPTH exposed to 20 μg/ml CPT-11, 30 days when assayed, tested in presence of CPT-11): 18.2 µg/mL
- IC50 (SW948CPTH cells [2]; read-out: CPT-11 IC50, SW948CPTH exposed to 20 μg/ml CPT-11, 51 days when assayed, tested in presence of CPT-11): 24 µg/mL
- IC50 (SW948CPTH cells [2]; read-out: CPT-11 IC50, SW948CPTH exposed to 20 μg/ml CPT-11, 60 days, CPT-11 withdrawn for 33 days prior to IC50 determination): 19 µg/mL (≈ 32.4 µM)
- IC50 (SW948CPTH cells [2]; read-out: CPT-11 IC50, SW948CPTH exposed to 20 μg/ml CPT-11, 65 days when assayed, tested in presence of CPT-11): 34 µg/mL
- IC50 (SW948CPTH cells [2]; read-out: CPT-11 IC50, SW948CPTH exposed to 30 μg/ml CPT-11, 47 days when assayed, tested in presence of CPT-11): 19 µg/mL
- IC50 (SW948CPTH cells [2]; read-out: CPT-11 IC50, SW948CPTH exposed to 40 μg/ml CPT-11, 30 days when assayed, tested in presence of CPT-11): 55 µg/mL
- IC50 (SW948CPTH cells [2]; read-out: CPT-11 IC50 Dose, SW948CPTH treated 20 μg/ml CPT-11 62 days, 5 days after removal of CPT-11): 25 µg/mL (≈ 42.6 µM)
- IC50 (SW948CPTH cells [2]; read-out: CPT-11 IC50 Dose, SW948CPTH treated 20 μg/ml CPT-11 62 days, 21 days after removal of CPT-11): 18.9 µg/mL (≈ 32.2 µM)
- IC50 (SW948CPTH cells [2]; read-out: CPT-11 IC50 Dose, SW948CPTH treated 20 μg/ml CPT-11 62 days, 40 days after removal of CPT-11): 19 µg/mL (≈ 32.4 µM)
- IC50 (SW948CPTH cells [2]; read-out: CPT-11 IC50 Dose, SW948CPTH treated 20 μg/ml CPT-11 62 days, 45 days after removal of CPT-11): 19.2 µg/mL (≈ 32.7 µM)
- IC50 (SW948CPTH cells [2]; read-out: CPT-11 IC50 Dose, SW948CPTH treated 20 μg/ml CPT-11 62 days, 68 days after removal of CPT-11): 11.4 µg/mL (≈ 19.4 µM)
- IC50 (SW948CPTH cells [2]; read-out: CPT-11 IC50 Dose, SW948CPTH treated 20 μg/ml CPT-11 62 days, 89 days after removal of CPT-11): 13.4 µg/mL (≈ 22.8 µM)
- IC50 ([3]; read-out: CPT-11 IC50 Dose, SW948CPTH xenograft #16 (CPT-11 treated tumor), 134 days after implant): 24.7 µg/mL (≈ 42.1 µM)
- IC50 ([3]; read-out: CPT-11 IC50 Dose, SW948CPTH xenograft #51 (untreated tumor), 121 days after implant): 18 µg/mL (≈ 30.7 µM)
- IC50 ([3]; read-out: CPT-11 IC50 Dose, SW948CPTH xenograft #53 (untreated tumor), 124 days after implant): 32.2 µg/mL (≈ 54.9 µM)
- IC50 ([3]; read-out: CPT-11 IC50 Dose, SW948CPTH xenograft #54 (untreated tumor), 103 days after implant): 25.1 µg/mL (≈ 42.8 µM)
- IC50 (SW948CPTH; Homo sapiens, read-out: Sensitivity expressed as IC50): 43.7 ± 8.6 µg/mL (≈ 74.5 µM)
- change in resistance of SW948CPTH cells compared to the parental cell line SW948 (SW948CPTH; IC50 by cell proliferation assay (Table 3)): increased resistance
- IC50 (SW948): 3 ± 0.4 µg/mL (≈ 5.11 µM)
- intracellular accumulation of CPT-11 (SW948CPTL cells): lower than the parent cell line SW948
- intracellular accumulation of CPT-11 (SW948CPTH cells [4]): lower than the parent cell line SW948
- IC50 (SW948 cells [5]; SW948, read-out: CPT-11 IC50 concentration (colony formation)): 2.8 µg/mL (≈ 4.77 µM)
- IC50 (SW948 cells [5]; read-out: CPT-11 IC50 of untreated SW948 cells, untreated SW948, mean value): 2.1 ± 0.3 µg/mL (≈ 3.58 µM)
- complete regressions [6]: 0/7
